# Test results taken from patent US8361959B2, “Spiro-imidazolone derivatives as glucagon receptor antagonists” (Merck Sharp & Dohme Corp., priority 2008, dated 2013).
# Target: T1, recombinant human glucagon receptor (Homo sapiens, UniProt P47871)
# T1 construct: expressed in transfected cells; host or cells: CHO (Chinese hamster ovary) cells
# Experiment: Inhibition of glucagon-stimulated intracellular cAMP assay
# Format: cell-based
# Conditions: CHO cells expressing recombinant human glucagon receptor, stimulated with 300 pM glucagon, LANCE cAMP
# Experimental: Inhibition of Glucagon-Stimulated Intracellular cAMP Assay
# Chinese hamster ovary (CHO) cells expressing the recombinant human glucagon receptor were harvested with the aid of non-enzymatic cell dissociation solution (GIBCO 13151-014). The cells were then pelleted and suspended in the stimulation buffer (1×HBSS, 5 mM Hepes, 0.1% BSA, pH7.4 in presence of complete protease inhibitor and phosphodiesterase inhibitor). The adenylate cyclase assay was conducted following the LANCE cAMP Kit (Perkin Elmer, AD0262) instructions. Briefly, cells were preincubated with anti-cAMP antibody in the stimulation buffer with a final concentration of 3% DMSO for 30 minutes and then stimulated with 300 pM glucagon for 45 minutes. The reaction was stopped by incubating with the detection buffer containing Europium chelate of the Eu-SA/Biotin-cAMP tracer for 20 hours. The fluorescence intensity emitted from the assay was measured at 665 nm using PheraStar instruments. […] Standard cAMP concentrations were conducted concurrently for conversion of fluorescence signal to cAMP level. Data was analyzed using GraphPad Prism. IC50 values were calculated using non-linear regression analysis assuming single site competition. […] Some of the compounds of the invention shown in the examples measured less than about 5 μM in this assay; other examples measured less than about 500 nM; others less than about 100 nM. […]
# T1 sequence (P47871 26-477): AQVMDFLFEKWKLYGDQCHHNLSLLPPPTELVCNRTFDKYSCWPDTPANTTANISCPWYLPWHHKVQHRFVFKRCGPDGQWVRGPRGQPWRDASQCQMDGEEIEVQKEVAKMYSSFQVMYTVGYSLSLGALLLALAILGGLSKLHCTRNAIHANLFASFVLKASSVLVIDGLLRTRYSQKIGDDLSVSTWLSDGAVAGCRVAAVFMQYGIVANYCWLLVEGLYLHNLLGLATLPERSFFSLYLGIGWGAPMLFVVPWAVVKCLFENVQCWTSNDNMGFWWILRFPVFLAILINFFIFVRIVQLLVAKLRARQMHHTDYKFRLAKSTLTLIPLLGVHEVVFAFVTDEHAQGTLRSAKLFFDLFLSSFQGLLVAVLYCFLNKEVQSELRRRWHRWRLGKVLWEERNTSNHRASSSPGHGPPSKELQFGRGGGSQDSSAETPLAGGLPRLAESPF
row,IC50 [µM],SMILES
1,0.452,CCC[C@H](c1ccc(C(=O)NCc2nn[nH]n2)cc1)N1C(=O)C(c2cccc(Cl)c2)=NC12CCC(C(C)(C)C)CC2 (some centres unmarked) [Example 1.156]
2,0.057,CC(C)(C)C1CCC2(CC1)N=C(c1ccc(F)cc1)C(=O)N2[C@@H](c1ccc(C(=O)NCCC(=O)O)cc1)C1CC1 (some centres unmarked) [Example 1.212]
